Laboratory results from US12029793B2, “pH low insertion peptide targeted delivery of potent cytotoxic compounds” (University of Rhode Island Board of Trustees, priority 2019, dated 2024).
Side chains are listed from the residue outwards. Ends that are not written are not given here. * marks the point of attachment. mertansine = COc1cc2cc(c1Cl)N(C)C(=O)C[C@H](OC(=O)[C@H](C)N(C)C(=O)CCS*)[C@]1(C)O[C@H]1[C@H](C)[C@@H]1C[C@@](O)(NC(=O)O1)[C@H](OC)/C=C/C=C(\C)C2; SPDP = linker on the drug for disulfide conjugation to Cys

Key:
[1] = test system: MDA-MB-231 human triple negative breast or HeLa human cervical tumors; assay: Tumor weight after IP or IT treatment with pHLIP-S-S-mertansine; type: in vivo, female athymic nude mice; conditions: for tumor weight reduction: vs non-treated control
Protocol: FIG. 19C depicts a box plot presenting mean (filled square), median, 25 and 75 percentiles (box itself) and standard deviation values of the tumor weights collected after IP and IT treatment with pHLIP-S-S-mertansine compared to the control (non-treated) group. P-level was calculated using two-tailed test.
pHLIP-S-S-mertansine dissolved in PBS and was given as multiple intraperitoneal (IP) or intratumoral (IT) injections (once in 3-4 days) into mice bearing MDA-MB-231 human triple negative breast or HeLa human cervical tumors in flanks of female athymic nude mice. The total combined dose of the multiple IP injections of pHLIP-S-S-mertansine was […], and the total combined dose of the multiple IT injections of pHLIP-S-S-mertansine was ˜2.5 mg/kg. When the tumor reached a size of about 1 cm^3 (about 1 g) in the control (non-treated) group, the animals were sacrificed; tumors were collected (FIG. 19B) and weighted (FIG. 19C).
In a separate experiment, IT injections were performed, tumors disappeared and mice were left for several weeks.

[2] = test system: HeLa human cervical tumors; assay: Tumor weight after treatment with pHLIP-S-S-exatecan; type: in vivo, female athymic nude mice
[3] = test system: HeLa human cervical tumors; assay: Tumor weight after IP treatment with pHLIP-S-S-calicheamicin; type: in vivo, female athymic nude mice; conditions: multiple IP injections once in 3-4 days, total ~1.5 mg/kg, vs non-treated control
Protocol: FIG. 21C depicts box plot presenting mean (filled squares), median, 25 and 75 percentiles (box) and standard deviation values of tumor weights after IP and IT treatment with pHLIP-S-S-calicheamicin compared to the control (non-treated) group. P-level was calculated using two-tailed test.
Calicheamicin modified with SPDP was synthesized and purified by Cfm, GmbH (FIG. 21A). Calicheamicin-SPDP was used to conjugate with Cys residue of pHLIP® peptide's membrane-inserting end to obtain pHLIP-S-S-calicheamicin. The pHLIP® peptide used in the study: […] (SEQ ID NO: 3) was prepared by solid-phase synthesis. Purification of the pHLIP-S-S-calicheamicin was conducted using RP-HPLC (the gradient: 10 mM TEAA buffer and acetonitrile), followed by lyophilization. The construct purity and identity was established by analytical RP-HPLC and surface-enhanced laser desorption/ionization time of flight (SELDI-TOF) mass spectroscopy, respectively. Construct concentration was calculated by absorbance at 280 nm for pHLIP® peptide with correction on absorbance of calicheamicin. pHLIP-S-S-calicheamicin dissolved in PBS was given as multiple intraperitoneal (IP) or intratumoral (IT) injections (once in 3-4 days) into mice bearing HeLa human cervical tumors in flank of female athymic nude mice.
The total combined dose of the multiple IP injections of pHLIP-S-S-calicheamicin was ˜1.5 mg/kg. […]

[4] = test system: panel of urinary bladder cancer cell lines; assay: Cell viability on panel of urinary bladder cancer cell lines (summary statements); type: cell-based; conditions: amanitin alone, two hours, concentrations up to 2 μM
Protocol: The cytotoxic and highly polar agents, like amanitin, may be especially effective in topical applications.
Cancer cells were loaded in the wells of 96-well plates (5,000 cells/well) and incubated overnight. The standard growth medium was replaced with medium without FBS, at pH 6.0 or 7.4, containing increasing amounts of pHLIP-S-S-amanitin (from 0 to 2.0 μM). The pH 6.0 medium was prepared by mixing 13.3 g of dry DMEM in 1 L of deionized water. After two-hour incubation with the pHLIP-S-S-amanitin, the construct was removed and replaced with standard growth medium. […] Cell viability was assessed after 48 hours using the colorimetric CellTiter 96 AQueous One Solution Cell Proliferation Assay by absorption measurement at 490 nm (FIG. 20B presents an example of the data obtained on SCaBER squamous cell carcinoma).
There was no difference in the viability of cells incubated with media, without construct, at pH 7.4 and pH 6.0; therefore, the role of pH was excluded from the consideration. Therapeutic index (TI) was calculated according to the equation: […]
Table 8 below contains EC50 values obtained for the treatment at pH 7.4 and pH 6.0 and calculated therapeutic index, which clearly indicated a pH-dependent cell action of pHLIP-S-S-amanitin. […]

In the case of “pHLIP-S-S-mertansine: Mertansine (DM1) conjugated to membrane-inserting end of pHLIP peptide ADDQNPWRAYLDLLFPTDTLLLDLLWCA (SEQ ID NO: 3) via cleavable S-S link (ADDQNPWRAYLDLLFPTDTLLLDLLWC(mertansine)A)”, the tumor disappearance ([1]; after IT administration, in some cases) is reported as “tumor disappeared”, the signs of toxicity ([1]; in the course of IP or IT treatment) is reported as “no signs of toxicity” and the tumor weight reduction ([1]; multiple IP injections once in 3-4 days, total combined dose −10 mg/kg) is reported as “About 60%”. For the same compound, the tumor weight reduction ([1]; multiple IT injections once in 3-4 days, total combined dose ~2.5 mg/kg) was “more than 90%” and the “cases with no tumor re-growth” value ([1]; separate experiment, IT injections, tumors disappeared, mice left for several weeks) was 60%.

In the case of “pHLIP-S-S-exatecan: Exatecan-SPDP conjugated with single Cys residue of membrane-inserting end of pHLIP peptide ADDQNPWRAYLDLLFPTDTLLLDLLWCA (SEQ ID NO: 3) (ADDQNPWRAYLDLLFPTDTLLLDLLWC([SPDP-exatecan])A)”, the tumor weight reduction ([2]; IP administration, multiple injections once in 3-4 days, vs non-treated control) is reported as 50-60% and the tumor weight reduction ([2]; IT administration) is reported as “more than 70%”.

In the case of “pHLIP-S-S-calicheamicin: Calicheamicin-SPDP conjugated with Cys residue of membrane-inserting end of pHLIP peptide ADDQNPWRAYLDLLFPTDTLLLDLLWCA (SEQ ID NO: 3) (ADDQNPWRAYLDLLFPTDTLLLDLLWC([SPDP-calicheamicin])A)”, the tumor weight reduction [3] is reported as “About 88%”.

With `CC[C@H](C)[C@@H]1NC(=O)CNC(=O)[C@@H]2Cc3c([nH]c4cc(O)ccc34)[S@+]([O-])C[C@H](NC(=O)CNC1=O)C(=O)N[C@@H](CC(N)=O)C(=O)N1C[C@H](O)C[C@H]1C(=O)N[C@@H]([C@@H](C)[C@@H](O)CO)C(=O)N2` [amanitin, alpha-amanitin] the “induction of cell death” value [4] was “did not induce cell death”.
